From PubChem BioAssay (NCI)
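Test compounds were applied to cells in 96-well plates for 48 hours at 5 doses. TGI: concentration producing complete growth inhibition.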

Tests used:
Experiment in all cases: DTP human tumour cell line panel, 48 h
[1] = tested on: 786-0 renal
[2] = tested on: CCRF-CEM leukemia
[3] = tested on: HCT-116 colon
[4] = tested on: HCT-15 colon
[5] = tested on: HL-60(TB) leukemia
[6] = tested on: IGROV1 ovarian
[7] = tested on: K-562 leukemia
[8] = tested on: MALME-3M melanoma
[9] = tested on: OVCAR-4 ovarian
[10] = tested on: OVCAR-5 ovarian
[11] = tested on: SF-295 CNS
[12] = tested on: T-47D breast
[13] = tested on: TK-10 renal

Compound	TGI [1] [µM]	TGI [2] [µM]	TGI [3] [µM]	TGI [4] [µM]	TGI [5] [µM]	TGI [6] [µM]	TGI [7] [µM]	TGI [8] [µM]	TGI [9] [µM]	TGI [10] [µM]	TGI [11] [µM]	TGI [12] [µM]	TGI [13] [µM]
CN(C)c1ccc(/C=C/C=C(/C#N)c2ccccc2)cc1	> 62.7	> 77.1	> 77	> 100	33	> 100	> 38	> 100	> 65.8	> 100	> 100	> 100	> 100
COC(=O)c1c(C)cccc1CC1Cc2c(C)cccc2C1=O (stereo not given)	> 100	90.2	> 100	> 100	45.5	> 100	> 100	> 100	> 100	> 100	> 100	> 100	> 100
O[C@@H]1C[C@@H]2N[C@@](O)(C[C@@H]2O)[C@H]1O	> 100	> 100	> 100	> 100	> 100	> 100	> 100	> 100	> 100	> 100	> 100	> 100	> 100
CC(=O)OCC1=C(C)C(OC(=O)C(OC(C)=O)[C@@H](NC(=O)c2ccccc2)c2ccccc2)CCC1(C)C (stereo not given in full)	> 100	> 100	> 100	> 100	> 100	> 100	> 100	> 100	> 100	> 100	> 100	> 100	> 100
Cc1ccc(Nc2cc(=O)[nH]c(=S)[nH]2)cc1	> 100	> 100	> 100	> 100	> 100	> 100	> 100	> 100	> 100	> 100	> 100	> 100	> 100
O=[N+]([O-])c1ccc2nc(/C=C(\O)c3ccc(F)cc3)c(/C=C(\O)c3ccc(F)cc3)nc2c1	39.7	26.4	> 100	> 100	55.7	> 100	> 100	> 100	> 100	> 100	57.6	> 100	34.2
Brc1ccc2[nH]cc(-c3nc(-c4c[nH]c5ccccc45)cs3)c2c1	8.55	> 26.2	7.15	6.89	16.1	8.75	> 20.1	9.39	23.1	5.37	10.6	31.7	10.5
C[Si](C)(OCCS(=O)(=O)O)C1S(=O)(=O)OCCOS1(=O)=O	> 100	> 100	> 100	> 100	> 100	> 100	> 100	> 100	> 100	> 100	31.8	> 100	> 100
Cc1ccc2c(n1)C(=O)c1ccccc1C2=O	> 100	> 100	61.8	82.9	45.7	73.4	> 84	23.2	55.4	> 56.5	> 83.3	> 85	> 100
COc1cccc(NC(=O)CC(=O)N2N=C(C)C(N=Nc3ccc(S(=O)(=O)c4ccc(N=NC5C(=O)N(C(=O)CC(=O)Nc6cccc(OC)c6)N=C5C)cc4)cc3)C2=O)c1 (stereo not given)	> 100	> 100	> 100	> 100	> 100	> 100	> 100	> 100	> 100	> 100	> 100	> 100	> 100
CSC1=C(c2ccc(Cl)cc2)SC(N2CCCCC2)N1c1ccc([N+](=O)[O-])cc1 (stereo not given)	> 100	> 100	62.8	89	97.4	> 100	> 100	> 100	> 100	65.9	61.2	70.1	> 100
CSc1ccc(/C=C2\N=C(c3ccccc3)N(c3nc4ccc(Sc5ccccc5)cc4[nH]3)C2=O)cc1	50.8	86.8	48.5	> 86.2	49.4	> 100	66.4	> 58.5	> 100	83.7	50.5	60.6	60.8
COc1ccc(N=C(Nc2ccc(OC)cc2)C(=Nc2ccc(OC)cc2)Nc2ccc(OC)cc2)cc1	> 100	> 100	> 100	> 100	> 100	> 100	> 100	> 100	> 100	> 100	> 100	> 100	> 100
COc1ccccc1N1CCN(Cn2c(=O)oc3cccnc32)CC1	> 100	> 100	> 100	> 100	> 100	> 100	> 100	> 100	> 100	> 100	> 100	> 100	> 100
O=C(N/N=C\c1ccc2ccccc2c1)Nc1ccc([N+](=O)[O-])cc1	> 62.8	> 100	> 59	> 72.6	> 100	> 100	> 100	> 70.9	> 70.2	62.9	> 68.9	> 59	> 55.9
